Marks after values point to notes of the source that are not given here.
Key:
DPPH reduction assay = details: for IC50: DPPH reduction, 60 min incubation
Protocol: The reduction of the stable DPPH free radical was measured by monitoring the change in absorbance at 517 nm. These experiments were made in a 96-well microplate. […] In each experiment, the compounds were tested in the concentration range 0.7812 μM to 50 μM, in triplicate. For each sample concentration, a blank with ethanol 70%, instead of DPPH was made. Ascorbic acid was used as a positive control and tested in the same conditions. Blanks containing only ethanol 70% and control containing DPPH in ethanol 70% (190 μM) were used. The absorbance at 517 nm was measured in a microplate reader BioTek^TM Synergy HT (BioTeck Instruments, Vermont, USA) after 60 min of incubation in the dark with a temperature-controlled holder at 25 °C. The microplate was shaken before each reading.
The scavenging percentage of DPPH was calculated using the following equation:(1) %scavenging of DPPH=100×(1−Abssample+DPPH−Abssample blank/AbsDPPH−AbsEtOH)
The IC50 value for each sample and for the ascorbic acid was obtained by linear regression.

collagenase = assay: Collagenase inhibition assay; type: biochemical
Protocol: An adaptation of the method of Moore and Stein [40] with modifications by Mandl et al. was used to determine anticollagenase activity. To 2 mL test tubes was added: 25 μL of collagenase solution (0.8 U/mL), 25 μL TES buffer (50 mM) with 0.36 mM calcium chloride (pH 7.4) and 50 μL of test sample or the reference compound EDTA (with concentrations ranging between 9.4 and 150 μM). The tubes were incubated in a water bath at 37 °C for 20 min. Thereafter, 50 μL FALGPA (1 mM) solution was added to the tubes and incubated further for 60 min at 37 °C. To all tubes, 200 μL of a solution containing equal volumes of a 1.6 mg/mLTin chloride (II) solution in 200 mM citrate buffer (pH 5) and 50 mg/mL ninhydrin solution in DMSO was added. All tubes were placed in a water bath (100 °C) for 5 min and left to cool to room temperature before adding 200 μL of 50% isopropanol to each tube. Contents in the tubes were then transferred to respective wells in 96-well plates.

hyaluronidase = test system: hyaluronidase
Protocol: The methods described by Ndlovu et al. and Zhou et al. were applied for the hyaluronidase inhibition assay. Into 2 mL test tubes was placed: 50 μL of calcium chloride (12.5 mM), 50 μL of test samples or sodium aurothiomalate diluted in 0.1 M acetate buffer; pH 3.5 (with concentrations ranging between 9.4 and 150 μM), and 25 μL hyaluronidase (0.5 mg/mL). The tubes were incubated in a water bath (37 °C; 20 min) after which 50 μL of the substrate hyaluronic acid (0.25 mg/mL in 0.1 M acetate buffer; pH 3.5) was added and the tubes incubated for further 40 min. Twenty-five microliters of KBO2 • 4 H2O (0.8 M) was added to all tubes which were placed in a water bath (100 °C) for 3 min, left to cool to room temperature, and 800 μL of DMAB (4 g DMAB in 40 mL acetic acid and 5 mL 10 N HCl) was added. The tubes were then incubated for 20 min and the contents transferred to respective wells in a 96-well plate. Absorbance was detected at 585 nm in a Bio-Rad Model 680 Microplate Reader (Bio-Rad Laboratories, Inc., Hercules, CA, USA). Percentage of hyaluronidase inhibition was calculated as:(3) % hyaluronidase inhibition =Abscontrol−Abssample/Abscontrol×100 where Abscontrol is the absorbance of buffer + hyaluronidase; Abssample is the absorbance of buffer + hyaluronidase + sample/standard.

[1] = Metal-chelating effect by UV/Vis, FeCl3; type: physicochemical; details: methanolic solution
Protocol: (§1) The ultraviolet/visible (UV/Vis) spectra were recorded in methanol using a path length of 1 cm, at room temperature on a Varian CARY100 spectrophotometer (Agilent Technologies, Santa Clara, California, United States) from a range of 200 nm to 500 nm (software CaryWin UV, v. 3.0). The metal-chelating effect was evaluated by described procedures with stock solutions (1.0 × 10^−4 M) in methanol. Iron (III) and copper (II) solutions were prepared in a concentration of 1.0 × 10^−3 M from FeCl3 and CuCl2 in deionized water.

[2] = Metal-chelating effect by UV/Vis, CuCl2; type: physicochemical; details: methanolic solution
Protocol: as §1

[3] = UV/Vis absorption spectra; type: physicochemical; details: UVB range 280–320 nm
Protocol: as §1

Stability in pH buffers = type: physicochemical; details: pH buffers 2-8, 21 days, room temperature, 200 µM
Protocol: All the solutions were prepared following Portuguese Pharmacopeia 9.0 specifications (F.P. (VIII) 2008). A solution at 10 mM in DMSO of each compound was prepared. One hundred microliters of antioxidant solution were diluted to 5 mL of the different buffered pH solutions, prepared in triplicate. Their absorbance measured by UV/Vis spectrophotometry in the wavelength range between 200 and 500 nm at time intervals of 0, 1, and 2 h and 1, 8, 15, and 21 d at room temperature. Each pH buffer solution was used as a compensation solution.

HaCaT cells = assay: Phototoxicity evaluation, HaCaT NRU assay; type: cell-based, human
Protocol: The HaCaT cells were maintained at 37 °C in a humidified atmosphere of 95% air and 5% CO2 in the incubator in dulbecco’s modified eagle’s medium (DMEM) with 10% fetal bovine serum (FBS) and 1% antibiotics. Using an inverted microscope, cell confluence was observed and if the cells reached 70–80% confluence, subculture was done to prevent cell death. For this purpose, the culture medium was aspirated and the cells were washed with dulbecco’s phosphate buffered saline (DPBS), 2 mL of trypsin-EDTA were added and incubated for 5–8 min at 37 °C in a 5% CO2 atmosphere. After cell detaching, medium was added in order to block the trypsin action and cell suspension was centrifuged at 416 g for 5 min. The supernatant was discarded, the pellet suspended in culture medium, and cells were counted. For cell counting: 50 μL of cell suspension were added to 50 μL of Trypan Blue vital dye […], resuspended, placed in a Neubauer chamber (Hirschmann, Germany) and the viable cells were counted. For cell freezing, DMSO (5% v/v) was used as a cryopreservative to prevent the formation of crystals during the storage phase.
HaCaT cells were seeded onto 96-well tissue culture plates (Orange Scientific, Braine-l’Alleud, Belgium) at a 2 × 10^4 cells/well density and incubated at 37 °C in a 5% CO2 atmosphere for 24 h. […] In this last step, the absorbance was measured at 540 nm. […]

HaCaT cell = test system: HaCaT cell; set-up: method as in doi:10.1016/j.arabjc.2017.01.006, PMID 31167479; details: cited from earlier work
[4] = Solubility in ethanol 70%; type: physicochemical

Row | SMILES | IC50 (DPPH reduction assay) | Collagenase % Inhibition (150 µM) (collagenase) | Hyaluronidase % Inhibition (150 μM) (hyaluronidase) | change of UV/Vis spectrum on sequential additions of FeCl3 [1] | change of UV/Vis spectrum on sequential additions of CuCl2 [2] | capacity to absorb UV radiation [3] | pH stability (Stability in pH buffers) | cytotoxicity to HaCaT cells (HaCaT cells; 12.5-200 µM, with and without UVA irradiation, NRU) | phototoxicity (HaCaT cells; up to 200 µM, HaCaT NRU assay) | decrease in HaCaT cell viability in the neutral red assay (HaCaT cell) | cytotoxic effect (HaCaT cell; up to 50 µM, MTT, neutral red, Alamar Blue, Trypan Blue assays) | maximum reduction activity (DPPH reduction assay; DPPH, IC50 not determinable, probably due to solubility issues) | solubility [4]
1 | O=C1O[C@H]([C@@H](O)CO)C(O)=C1O [Ascorbic Acid, Ascorbic acid, reference compound] | 40 ± 0.8 µM | – | – | – | – | – | – | – | – | – | – | – | –
2 | Cc1cc(O)c(O)c2oc3ccccc3c(=O)c12 [Compound 2, 3,4-dihydroxy-1-methyl-9H-xanthen-9-one] | 31.2 ± 4.8 µM | 26.83 ± 1.45 ^b % | n.a. (Not active (0% inhibition)) | bathochromic shifts were observed | no effect was observed | high absorbance in the UVB range | a degradation of the compound for the range of pH tested overtime is observed | – | – | – | – | – | –
3 | O=c1c2ccccc2oc2ccc(O)c(O)c12 [Compound 1, 1,2-dihydroxy-9H-xanthen-9-one] | 28.4 ± 0.2 µM | 35.77 ± 1.82 ^a % | n.a. (Not active (0% inhibition)) | bathochromic shifts | bathochromic shifts | high absorbance in the UVB range | more stable in the pH range that is closest to the pH of the skin | not cytotoxic | nonphototoxic | 83% | did not promote a significant cytotoxic effect | – | –
4 | Cc1cc(O)c(O)c2oc3cc(O)ccc3c(=O)c12 [Compound 3, 3,4,6-trihydroxy-1-methyl-9H-xanthen-9-one] | 47.3 ± 0.4 µM | – | n.a. (Not active (0% inhibition)) | bathochromic shifts were observed | no effect was observed | high absorbance in the UVB range | – | – | – | – | – | – | –
5 | COc1cc(O)c2c(=O)c3ccccc3oc2c1O [Compound 4, 1,4-dihydroxy-3-methoxy-9H-xanthen-9-one] | – | – | – | – | – | – | – | – | – | – | – | lower than 50% | low solubility

From publication PMC7356587, “Efficacy, Stability, and Safety Evaluation of New Polyphenolic Xanthones Towards Identification of Bioactive Compounds to Fight Skin Photoaging” (Molecules, 2020)
